Test results: patent US12208093B2 (THE JOHNS HOPKINS UNIVERSITY, priority 2016, dated 2025)
Entries after “also recorded” stand apart in the source; their conditions may differ. Where a name gives a salt, the structure may show the parent alone.

Assays:
[1] = tested on: pp28-luciferase HCMV Towne; assay: microbe, parasite or virus in culture; type: cell-based, human cytomegalovirus (HCMV)
Excerpt: A GCV-resistant pp28-luciferase HCMV strain, with a C607Y mutation in UL97 was also used. The recombinant viruses express luciferase under the control of the late CMV gene promoter, pp28. […] The recombinant viruses provide a highly-sensitive and reproducible reporter system which correlates with the classic plaque reduction assay. […] Human herpes virus strains were: luciferase HSV1-KOS/Dlux/oriS and clinical isolates of HSV2.
Cell culture, virus infection and anti-viral assays. […] Infection with HCMV or HSV was performed in HFFs, and infection with mouse CMV was performed in MEFs. For HCMV, cells were seeded in either a 96-well plate or 100 mm culture plates (Corning Costar, Sigma Aldrich) at 0.5 or 2 million cells/plate. Following 90 minute adsorption, media was removed and cells were washed with PBS. Media containing 4% FBS and compounds were added to each well. Infected treated HFFs were collected at 72 hpi and lysates were assayed for luciferase activity using a luciferase assay kit (Promega, Madison, WI) on GloMax®-Multi+Detection System (Promega). In second cycle assays, supernatants were collected from all conditions of the first cycle at 96 hpi and used for infection of fresh HFFs in 96-well-plates. […] For HSV1-KOS/Dlux/oriS, a luciferase assay was performed at 24 hpi. Plaque assays were performed with clinical isolates of HSV2 and HCMV Towne. […] Following virus adsorption (60 min and 90 min for HSV and HCMV, respectively), virus was aspirated, and DMEM containing 4% fetal bovine serum (FBS) with (for HSV) or without (for HCMV) 0.5% carboxymethyl-cellulose, were added with the compounds at indicated concentrations into triplicate wells. After incubation at 37° C. for 10 days (for HCMV) or 2 days (for HSV), the overlay was removed and plaques were counted after crystal violet staining.

[2] = tested on: HSV-1 (luciferase HSV1-KOS/Dlux/oriS); assay: HSV-1 luciferase assay in HFFs; type: cell-based, herpes simplex virus 1; conditions: nM concentrations
Excerpt: Cell culture, virus infection and anti-viral assays.

[3] = tested on: HCMV proteins IE1/2, UL44 and pp65; assay: Western blot of HCMV protein expression; type: cell-based, human cytomegalovirus (HCMV); conditions: 72 hpi
Excerpt: (§1) SDS-polyacrylamide gel electrophoresis and immunoblot analysis. Cell lysates were quantified for protein content using bicinchoninic acid (BCA) protein assay kit (Pierce Chemical, Rockford, IL). Equivalent amount of proteins were used for Western blot analysis as described previously. Protein bands were visualized by chemiluminescence using Western Blotting Luminol Reagent (Santa Cruz Biotechnology, Santa Cruz, CA). The following antibodies were used for detection of HCMV proteins: mouse anti-IE1 and IE2, (MAb810); mouse anti-UL44 (Santa Cruz biotechnology Santa Cruz, CA); mouse monoclonal anti-pp65 (Vector laboratories, Burlingame, CA); mouse monoclonal anti-β-actin antibody (Millipore, Billerica, MA); rabbit polyclonal anti-RPS14 and mouse monoclonal anti-MDM2 (AbCam, Cambridge, UK), mouse monoclonal anti-p53 (Santa Cruz, CA); horseradish peroxidase (HRP)-conjugated goat anti-rabbit IgG (Cell Signaling); and HRP-conjugated sheep anti-mouse IgG, (GE Healthcare, Waukesha, WI). For detection of co-immunoprecipitated proteins, protein A-HRP conjugate (Cell Signaling Technologies, Beverly, MA) was used as secondary antibody to eliminate the interfering IgG bands.

MCMV = MCMV infection model in BALB/c mice; type: in vivo, Murid Herpesvirus (MCMV) in BALB/c mice
Protocol: Control mice received 0.1 ml of saline intraperitoneally. […] Control and infected mice received equivalent volumes of saline. […] Mice were sacrificed at day 14 after infection. Blood samples were collected by cardiac puncture. […] Two million MEFs were seeded into 24 well plates. […] Plaques were counted after three days. […] The gB primers were: F: 5′ […] 3′ (SEQ ID NO:1); R: 5′ […] 3′(SEQ ID NO:2) (43).

p21 mRNA = assay: qRT-PCR for p21 in infected HFFs; type: cell-based, human; conditions: contact-inhibited cells, emetine 75 nM, p<0.01
Excerpt: RNA isolation and real time quantitative reverse transcriptase (qRT) PCR. Total RNA was isolated from cultured cells using RNeasy Mini kit (Qiagen, Georgetown, MD) according to manufacturer's instructions. RevertAid first strand cDNA synthesis kit (Fermentas life sciences, Cromwell Park, MD) was used to synthesize first strand cDNA from total RNA using oligo-dT primers. Negative reverse-transcriptase (−RT) reactions were included to ensure the specificity of qRT-PCR reactions. Synthesis of first strand cDNA from mRNA template was carried out at 42° C. for 1 h. Quantitative RT-PCR (qRT-PCR) was performed using specific primers for p21 (F: 5′ […] 3′ (SEQ ID NO:3); R: 5′ […] 3′) (SEQ ID NO:4) and SYBR green (Fermentas life science) with two-step cycling protocol (95° C. for 15 s, 60° C. for 1 min). Reactions were performed in triplicates and GAPDH (F: 5′ […] 3′ (SEQ ID NO:5); R: 5′ […] 3′ (SEQ ID NO:6)) was used as the internal control.

RPS14 and MDM2 = target: T1, RPS14 and MDM2 (Homo sapiens, UniProt P62263+Q00987); assay: Co-immunoprecipitation of RPS14 and MDM2; RPS14 expression and ubiquitination; type: cell-based
T1 construct: endogenous in cells; host or cells: Human foreskin fibroblasts (HFFs, ATCC CRL-2088), infected with HCMV Towne
Excerpt: as §1
(§2) Co-immunoprecipitation (IP) and immunoblotting. Non-infected, infected or emetine-treated HFFs were treated with MG132 (10 μM) for 12 h. […] 1 mg of lysate was precleared with bead slurry for 30 min. The precleared lysates were incubated with anti-MDM2 (2 μg) antibody overnight. The antibody complexes were isolated using protein A/G beads (Santa Cruz), washed three times with 50% IP buffer. The immunoprecipitate—protein A/G beads were boiled in SDS sample buffer, and the supernatant was analyzed on SDS-PAGE gels after immunoblotting as described previously. […] Reverse IPs were performed by pulling down the precleared lysates with either anti-p53 antibody or anti-RPS14 antibody and detected with MDM2. […] In other experiments, transfected or treated HEK293 cell lysates were pulled-down with anti-IE2 antibody and detected with anti-MDM2 antibody and vice-versa for reverse IP.

MDM2-p53 = assay: Co-immunoprecipitation of MDM2 and p53; MDM2 and p53 expression; type: cell-based, human; conditions: contact-inhibited infected cells
Excerpt: as §1, §2

[4] = tested on: HCMV in RPS14 knockdown cells; type: cell-based, human cytomegalovirus (HCMV); conditions: contact-inhibited RPS14 knockdown cells; luciferase first and second cycle, pp65 at 72 hpi; dihydrochloride hydrate
protein synthesis = conditions: at concentration that inhibit CMV replication in vitro; cited from earlier work
[5] = human; cited from earlier work

CC[C@H]1CN2CCc3cc(OC)c(OC)cc3[C@@H]2C[C@@H]1C[C@H]1NCCc2cc(OC)c(OC)cc21 [emetine, emetine dihydrochloride hydrate]
HCMV inhibition in relation to cell density at time of infection ([1]; HFFs 0.5-2 million cells/plate, emetine 75 nM, GCV 5 μM): significant virus inhibition was observed only at higher cell density
EC50 ([1]; Human betaherpesvirus 5, read-out: EC50 against HCMV): 40 nM
reduction in normalized luciferase activity at low cell density ([1]; emetine 75 nM, 0.5 million cells/plate in 96-well plate): no significant reduction
concentration that fully inhibits HCMV ([1]; luciferase at 72 hpi): 75 nM
inhibition of HSV-1 [2]: inhibited
expression of HCMV proteins IE1/2, UL44 and pp65 [3]: significantly reduced
viral UL44 and pp65 expression at high cell density ([3]; emetine 75 nM, vs infected untreated cells, not at lower cell density): significant reduction
MCMV inhibition in mice (MCMV; oral every 72 h / three days, low dose 0.1 mg/kg, dihydrochloride hydrate, 0.1 mg/kg): inhibited; also recorded: high efficacy; also recorded: inhibits mouse CMV replication; also recorded: effectively suppressed MCMV
difference in efficacy between 0.1 and 1 mg/kg (MCMV; oral, every three days): no significant difference
increase in p21 mRNA (p21 mRNA; 24 hpi): 5.4 fold
increase in p21 mRNA (p21 mRNA; 72 hpi): 6.7 fold
interaction between RPS14 and MDM2 (RPS14 and MDM2; 24 hpi, contact-inhibited infected cells, not cycling cells, MG132 present): strongly induced
HCMV-induced RPS14 expression (RPS14 and MDM2; 72 hpi, contact-inhibited infected cells, emetine 75 nM): reduced
ubiquitinated RPS14 (RPS14 and MDM2; 72 hpi, only in contact-inhibited cells, MG132): increased
MDM2 expression (MDM2-p53; 72 hpi): increased
p53 expression (MDM2-p53; 72 hpi): increased
HCMV-induced interaction between MDM2 and p53 (MDM2-p53; not cycling cells, MG132): disrupted
HCMV inhibition in RPS14 knockdown cells [4]: unable to inhibit HCMV; also recorded: loss of HCMV inhibition
tolerability in mice: well-tolerated
inhibition of protein synthesis (protein synthesis): no inhibition of protein synthesis
half-life [5]: 24 to 48 h
